One data set relates to pGF-NFκB in SF767 cells. Nature of the data set: NFκB luciferase reporter assay in SF767 glioma cells. Type of data set: cell-based. To be noted: SF767 glioma cell line; luciferase activity 40 hrs after treatment; stable pGF-NFκB. As to the method: (§1) Using lentiviral transcriptional reporter vectors, pGreenFire-NFkB, and pGreenFire-mCMV (negative control), from System Biosciences Inc. (Mountainview, Calif.), HEK293-T cells (Lonza, Inc. Allendale, N.J.) are transfected with the constructs and the media containing the viral supernatants is collected. To generate stably expressing reporter cell lines, cancer cell lines are infected with the viral supernatant and the cells are selected with puromycin ([…]) for 5 days. For the experiments, test compound is added and left on the cells before being assayed for luciferase activity. SKOV-3X, Panc1, and SF767 cells with the stable pGF-NFκB are treated with test compounds and assayed 40 hrs later for luciferase activity. Panc1 is a pancreatic cancer cell line; SF767 is the glioma cell line. IC50 values for test compounds are determined.

For another data set, the system named is pGF-NFκB in Panc1 cells. As to the kind of experiment: NFκB luciferase reporter assay in Panc1 pancreatic cancer cells. Type of data set: cell-based. Particulars: Homo sapiens, PANC-1; luciferase activity 40 hrs after treatment; stable pGF-NFκB; read-out: Panel IC50. As to the method:
as §1

In the next data set the test system is Skov-3X. As to the kind of experiment: Growth inhibition of ovarian cancer cells, Skov-3X. Format: cell-based. To be noted: ovarian cancer cell line. The protocol:
(§2) Test compounds are assayed for growth inhibition ability against two 2 ovarian cancer cell lines. IC50 values for test compounds are determined.

For another data set, the system named is Hey-C2. As to the kind of experiment: Growth inhibition of ovarian cancer cells, Hey-C2. Particulars: ovarian cancer cell line. Type of data set: cell-based. As to the method:
as §2

Another data set has as its target Ape1 (Homo sapiens, UniProt P27695). Nature of the data set: Redox EMSA assay. Type of data set: biochemical. Particulars: electrophoresis, 0.02 mM DTT. The protocol:
Conventional electrophoresis measuring Ape1 expression with 0.02 mM DTT is used to evaluate test compounds. […] Additional details are described in Fishel et al. Mol Cancer Ther. 2011 September; 10(9):1698-708 & Luo et al., Antioxid Redox Signal. 2008 November; 10(11):1853-67.

The nature of the next data set: Pharmacokinetics in mice. To be noted: mouse, in vivo, approximate values. As to the method: The pharmacokinetics of test compounds are evaluated in mice using conventional methods, using oral (25 mg/kg), intraperitoneal (25 mg/kg), and intravenous routes (5 mg/kg) of administration. The following approximate Cmax (ng/mL) values for test compounds are determined.

The test system of another data set is NFkB. As to the kind of experiment: Ape1/Ref1 transcription factor activation (NFkB transactivation). Format: cell-based. Particulars: Hey-C2, SF767, Panc1, and Skov-3X cell lines. An excerpt:
The DNA base excision-repair pathway is responsible for the repair of DNA damage caused by oxidation/alkylation and protects cells against the effects of endogenous and exogenous agents. Removal of the damaged base creates a baseless (AP) site. AP endonuclease1 (Ape1) acts on this site to continue the BER-pathway repair. Failure to repair baseless sites leads to DNA strand breaks and cytotoxicity. In addition to the repair role, Ape1 also functions as a major redox-signaling factor to reduce and activate transcription factors such as AP1, p53, HIF-1alpha, and others that control the expression of genes important for cell survival and cancer promotion and progression. Thus, the Ape1 protein interacts with proteins involved in DNA repair, growth-signaling pathways, and pathways involved in tumor promotion and progression. Test compounds are evaluated for activity in decreasing transactivation of transcription factors.

A further data set concerns PaCa-2 cells. As to the kind of experiment: Pancreatic cancer cell xenograft. Format: in vivo. To be noted: orally 25 mg/kg twice daily for 18 days; PaCa-2 s.c. in NOD/SCID mice; FIG. 1. As to the method: PaCa-2 cells (2.5×10^6) in 0.2 mL of DMEM media were implanted s.c. into the right flanks of NOD/SCID mice. Test compounds are dissolved in 4% CremophorEL:EtOH (1:1)/saline solution or methylcellulose (0.5%, Sigma). When tumor volumes are greater than about 100 mm^3, test compounds are administered, such as orally, twice daily, 8 hours apart, at 25 mg/kg for 10 to 18 days (5 days on 2 days off schedule). Tumors are measured biweekly and followed for approximately 6 weeks. Tumor volumes are monitored by caliper measurement [tumor volume=length×(perpendicular width)2×0.5] and the average tumor volume in mm^3 for each treatment group is plotted. Treatment corresponds to days 1 to 15. Average tumor volume±SE for the vehicle compared to test compounds (n=7) are analyzed by statistical analysis. Additional details are described in Fishel et al. Mol Cancer Ther. 2011 September; 10(9):1698-708.

Read-outs that look alike come from different tables or passages of the source.

Sequence of Ape1 (P27695 whole entry): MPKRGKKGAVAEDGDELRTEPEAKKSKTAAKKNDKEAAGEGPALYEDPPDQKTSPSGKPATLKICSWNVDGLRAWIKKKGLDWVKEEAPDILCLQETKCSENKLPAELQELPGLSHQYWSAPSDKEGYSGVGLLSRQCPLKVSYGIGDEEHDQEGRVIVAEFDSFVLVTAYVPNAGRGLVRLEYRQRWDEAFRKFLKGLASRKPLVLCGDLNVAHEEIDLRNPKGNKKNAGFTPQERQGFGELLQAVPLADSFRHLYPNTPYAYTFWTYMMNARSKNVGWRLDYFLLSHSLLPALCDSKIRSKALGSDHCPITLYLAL

On to `CCCCCCCCC/C(=C\C1=C(C)C(=O)C(OC)=C(OC)C1=O)C(=O)O` [Example E3330, reference compound], for which the IC50 is 80 µM in the data set with pGF-NFκB in SF767 cells, 52 µM in the data set with pGF-NFκB in Panc1 cells, ~100 µM with Skov-3X and ~100 µM in the data set on Hey-C2. Also, on Ape1, the “concentration showing significant signal reduction” value turned out to be 30 µM.
Take `COC1=C(C=C(C)C(=O)N(C)C)C(=O)c2ccccc2C1=O` [Example 5a]: the IC50 in the data set with pGF-NFκB in SF767 cells worked out at 10 µM; with pGF-NFκB in Panc1 cells it was 5 µM; in the data set with Skov-3X it was 17 µM; in the data set on Hey-C2, 18 µM. Also, the Cmax came to 200 ng/mL in “Pharmacokinetics in mice” (intravenous 5 mg/kg, read-out: IV Cmax); 2000 ng/mL in “Pharmacokinetics in mice” (ip, intraperitoneal 25 mg/kg, read-out: IP Cmax); 200 ng/mL in the data set “Pharmacokinetics in mice” (oral 25 mg/kg, read-out: Oral Cmax).
Take `CCCCCCCCCC(=CC1=C(C)C(=O)C(OC)=C(OC)C1=O)C(=O)N(C)OC` [Example 6b]: the IC50 with pGF-NFκB in SF767 cells was found to be 18 µM; in the data set on pGF-NFκB in Panc1 cells, 10 µM; in the data set with Skov-3X, 32 µM; in the data set on Hey-C2, 22 µM.
On the same counts, the results for `CCCC(=CC1=C(OC)C(=O)c2ccccc2C1=O)C(=O)N(CC)CC` [Example 5c] are 18 µM, 8 µM, 30 µM and 25 µM.
For `CCCCCCCCCC(=CC1=C(C)C(=O)C(OC)=C(OC)C1=O)C(=O)NOC` [Example 6a], the IC50 in the data set on pGF-NFκB in SF767 cells was 12 µM; in the data set with pGF-NFκB in Panc1 cells, 9 µM; in the data set with Skov-3X it was 38 µM; in the data set on Hey-C2, 28 µM. For the same compound, in the data set with NFkB, the “% transactivation of NFkB” value is given as “significant decrease”. The “tumor volume compared to untreated control” value in the data set with PaCa-2 cells is reported as “significant reduction in tumor volume”. Besides, the “concentration showing significant signal reduction” value at Ape1 turned out to be 20 µM. Besides, the “Ape1 expression knock-down compared to E3330” value on Ape1 (in vitro) is recorded as “improved expression knock-down compared to E3330”.
For `CCCC(=CC1=C(OC)C(=O)c2ccccc2C1=O)C(=O)NOC` [Example 5d], the IC50 stood at 10 µM in the data set with pGF-NFκB in SF767 cells, 7 µM with pGF-NFκB in Panc1 cells, 10 µM in the data set with Skov-3X and 11 µM in the data set with Hey-C2.

(Values after patent US10154973B2, “Quinone compounds for treating APE1 mediated diseases” (Indiana University Research and Technology Corporation, priority 2011, dated 2018).)
